Data on five compounds can be found in patent US9550755B2, “Complement pathway modulators and uses thereof” (NOVARTIS AG, priority 2012, dated 2017).

In general, IC50 refers to the point on the concentration scale where inhibition reaches its midpoint.

The assay addresses Recombinant human factor D (Homo sapiens (Human), UniProt P00746). As to the kind of experiment: Human Complement Factor D Assay: Method 1. The class given is biochemical. The settings on record: recombinant human factor D 10 nM; substrate Z-Lys-thiobenzyl; fluorescence readout; read-out: IC50 (μM), Factor D inhibition using Method 1. The method, then: Human Complement Factor D Assay: Method 1
Recombinant human factor D (expressed in E. coli and purified using standard methods) at 10 nM concentration is incubated with test compound at various concentrations for 1 hour at room temperature in 0.1 M Hepes buffer, pH 7.5, containing 1 mM MgCl2, 1 M NaCl and 0.05% CHAPS. A synthetic substrate Z-Lys-thiobenzyl and 2,4-dinitrobenzenesulfonyl-fluoresceine are added to final concentrations of 200 μM and 25 μM, respectively. The increase in fluorescence is recorded at excitation of 485 nm and emission at 535 nm in a microplate spectrofluorimeter. IC50 values are calculated from percentage of inhibition of complement factor D-activity as a function of test compound concentration.

Recombinant human factor D, sequence (P00746 26-253): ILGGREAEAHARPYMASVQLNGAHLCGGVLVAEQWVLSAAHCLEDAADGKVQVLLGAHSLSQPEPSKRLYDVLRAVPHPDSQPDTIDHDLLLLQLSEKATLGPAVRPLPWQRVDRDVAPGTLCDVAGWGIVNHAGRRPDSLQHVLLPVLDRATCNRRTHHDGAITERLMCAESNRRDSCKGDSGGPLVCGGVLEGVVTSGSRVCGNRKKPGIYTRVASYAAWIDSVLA

For `NC(=O)c1nn(CC(=O)N2[C@@H]3C[C@@H]3C[C@H]2C(=O)Nc2ccn(CC(F)(F)F)n2)c2ccccc12` [Example 1, 1-(2-oxo-2-((1R,3S,5R)-3-(1-(2,2,2-trifluoroethyl)-1H-pyrazol-3-ylcarbamoyl)-2-azabicyclo[3.1.0]hexan-2-yl)ethyl)-1H-indazole-3-carboxamide], the IC50 was 0.064 µM. Under `NC(=O)c1nn(CC(=O)N2[C@@H]3C[C@@H]3C[C@H]2C(=O)Nc2ccn(CC(F)(F)F)n2)c2cnccc12` [Example 2, 1-(2-oxo-2-((1R,3S,5R)-3-((1-(2,2,2-trifluoroethyl)-1H-pyrazol-3-yl)carbamoyl)-2-azabicyclo[3.1.0]hexan-2-yl)ethyl)-1H-pyrazolo[3,4-c]pyridine-3-carboxamide] stands 0.098 µM. For `CC(=O)c1nn(CC(=O)N2[C@@H]3C[C@@H]3C[C@H]2C(=O)Nc2ccn(CC(F)(F)F)n2)c2cnccc12` [Example 3, (1R,3S,5R)-2-(2-(3-acetyl-1H-pyrazolo[3,4-c]pyridin-1-yl)acetyl)-N-(1-(2,2,2-trifluoroethyl)-1 H-pyrazol-3-yl)-2-azabicyclo[3.1.0] hexane-3-carboxamide], the half-inhibitory concentration (IC50) was 0.083 µM. The figure for `CC(C)n1ccc(NC(=O)[C@@H]2C[C@H]3C[C@H]3N2C(=O)Cn2nc(C(N)=O)c3ccccc32)n1` [Example 4, 1-(2-((1R,3S,5R)-3-(1-isopropyl-1H-pyrazol-3-ylcarbamoyl)-2-azabicyclo[3.1.0]hexan-2-yl)-2-oxoethyl)-1H-indazole-3-carboxamide] is 0.17 µM. The figure for `NC(=O)n1cc(NC(=O)N2[C@@H]3C[C@@H]3C[C@H]2C(=O)Nc2ccn(CC(F)(F)F)n2)c2ccccc21` [Example 5, (1R,3S,5R)—N2-(1-carbamoyl-1H-indol-3-yl)-N3-(1-(2,2,2-trifluoroethyl)-1H-pyrazol-3-yl)-2-azabicyclo[3.1.0]hexane-2,3-dicarboxamide] is 0.032 µM.
